{"source": "patent US6750375B2", "about": "“Transgenic mouse comprising a disruption in an RGS9 gene” (California Institute of Technology, priority 2000, dated 2004)", "format_in_all_cases": "in vivo, mouse", "key": {"[1]": {"tested_on": "RGS9 knockout mice and their wild type littermates", "assay": "Locomotor activity (photobeam cage rack) in unlesioned animals", "description": "(§1) RGS9 knockout mice and their wild type littermates were placed in the photobeam cage rack activity system. The photobeam cage rack activity system was made by San Diego Instruments. Single events represent disruption of two distinct light beams 10 cm apart. Before drug administration, animals were allowed to habituate for 30 min. which was scored as baseline activity. […] All drugs were injected intraperitoneally. Drug effects were assessed for 30 min. Bodyweight was measured prior to all drug applications.\nLocomotion in Unlesioned Animals"}, "[2]": {"tested_on": "RGS9 knockout mice and their wild type littermates", "assay": "Dyskinesia rating (abnormal involuntary movements) in reserpine treated animals", "settings": "apomorphine 5 mg/kg after chronic reserpine", "description": "To score for abnormal involuntary movements we adapted a rating scale that was previously used to score drug induced dyskinesia in monkeys (Goulet and Madra, JPET 2000). Both, trunk and limb, dyskinesia and stereotypic behavior were rated-absent (=O), mild (=1), moderate (=or 2) or severe (=3).\nUsing a modified monkey dyskinesia scale, there was a dramatic difference between homozygous knock out animals and wild type or heterozygous mice (FIG. 3)."}, "[3]": {"tested_on": "RGS9 knockout mice and their wild type littermates", "assay": "Locomotion in dopamine depleted (reserpine treated) animals", "description": "as §1\nThere are several options to induce behavioral changes secondary to a dopaminergic deficit in rodents. However, a strong phenotype in mice is difficult o achieve. […] Therefore, we depleted the animals of dopamine using chronic treatment with reserpine (1 mg /kg per day×5 days). […] Baseline locomotor activity was already greater in homozygous knock-out animals (FIG. 2, n. s.)."}}, "data": [{"molecule": "Oc1cc2c(cc1O)C(c1ccccc1)CNCC2", "note": "(stereo not shown) [SKF 38393]", "values": [{"measurement": "increase in locomotion", "setting": "[1]; SKF 38393 10 mg/kg, all animals, no differences between genotypes (p=0.7)", "result": 2, "unit": "fold"}]}, {"molecule": "C[C@H](N)Cc1ccccc1", "note": "[amphetamine, d-amphetamine]", "values": [{"measurement": "increase in locomotion, homozygous knock-out vs wild type", "setting": "[1]; amphetamine 5 mg/kg intraperitoneal, homozygous knock-out animals, p<0.05, t-test", "result": "significantly greater increase in locomotion"}, {"measurement": "locomotion", "setting": "[1]; amphetamine 5 mg/kg intraperitoneal, wild type and RGS9 deficient animals", "result": "robust increase in locomotion"}]}, {"molecule": "CN1CCc2cccc3c2[C@H]1Cc1ccc(O)c(O)c1-3", "note": "[apomorphine]", "values": [{"measurement": "abnormal motor behavior (dystonia, hyperkinetic movements of the hindlimbs)", "setting": "[2]", "result": "induced abnormal motor behavior only in homozygous knockout animals"}, {"measurement": "locomotor activity", "setting": "[3]; apomorphine 5 mg/kg after chronic reserpine, all animals", "result": "induced locomotor activity in all animals"}, {"measurement": "locomotor activity, homozygous knock-out vs other animals", "setting": "[3]; apomorphine 5 mg/kg after chronic reserpine, homozygous knock out animals, p<0.05", "result": "more pronounced in homozygous knock out animals"}]}, {"molecule": "COC(=O)[C@H]1[C@H]2C[C@@H]3c4[nH]c5cc(OC)ccc5c4CCN3C[C@H]2C[C@@H](OC(=O)c2cc(OC)c(OC)c(OC)c2)[C@@H]1OC", "note": "[reserpine]", "values": [{"measurement": "spontaneous locomotion", "setting": "[3]; reserpine 1 mg/kg per day x 5 days", "result": "greatly reduced spontaneous locomotion"}]}]}
